Columns and labels:
[1] = Test for water solubility; format: physicochemical; conditions: water
Source text: 3. Test for water solubility
A standard plot of UV absorbance(220 nm) vs. concentration was made; and employed to determine water-solubility.
The mixture was then passed through a 0.45 micron disposable membrane filter before dilution and UV measurement.

[2] = tested on: murine leukemia L1210 cells; assay: Growth inhibition test on cultured murine leukemia L1210 cells; format: cell-based; conditions: 48 hours, 37° C., Trypan blue viability
In short: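 L1210 cells (1×10^5) exposed to graded compound concentrations in RPMI 1640 with 10% fetal calf serum, 37° C, 5% CO2, 48 h. Viability by 0.17% Trypan blue staining, relative to untreated control cells.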

[3] = tested on: murine leukemia L1210; assay: Antitumor activity test on murine leukemia L1210 in vivo; parameters: species or system male BDF1 mice; conditions: days 1, 5, 9
In short: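 Intraperitoneal L1210 model: 1×10^6 cells inoculated i.p. into 6-week-old male BDF1 mice (21±3 g) on day 0, seven per group. Compounds in 0.5% CMC given i.p. on days 1, 5 and 9; vehicle-only controls. T/C % from mean survival time of treated over control.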

[4] = tested on: ICR mice; assay: Acute toxicity test; format: in vivo; parameters: Lethality: unit not given here; conditions: for Lethality: 10080 min
Procedure: 7-week-old ICR mice(male: 34±2 g; female: 31±2 g) were fed with solid food and water under the condition of 23±1° C. temperature and 65±5% humidity before the test.
Each treatment group consisted of 6 mice. The test compounds were administered intraperitoneally.
For 7 days after the administration, the appearance and the fate of the tested animals were recorded. The dead animals were subjected to autopsy and their visible pathological changes were observed. Their viscerals were stored in 10% formalin solution.

## CC(C)C1O[C@H](CN)[C@@H](CN)O1.O=C1C[O][Pt][O]1 [Example 7, (glycolato-O,O')[(4R,5R)-4,5-bis(aminomethyl)-2-isopropyl-1,3-dioxolane]platinum(II)]
[1]
  Solubility in water: > 30 mg/mL
[2]
  IC50 (concentration required for 50% inhibition of growth): 0.06 mg/L
[3]; 3.1 mg/kg i.p.
  T/C (%): 155%
[3]; 6.2 mg/kg i.p.
  T/C (%): 166%
[3]; 12.5 mg/kg i.p.
  T/C (%): 191%
[3]; 25 mg/kg i.p.
  T/C (%): toxic
[3]; 50 mg/kg i.p.
  T/C (%): toxic
[4]; female, 25.0 mg/kg i.p.
  Number of dead mice for 7 days: 0/6
  Number of dead mice, 1st day: 0/6
[4]; female, 32.5 mg/kg i.p.
  Number of dead mice for 7 days: 0/6
  Number of dead mice, 1st day: 0/6
[4]; female, 42.3 mg/kg i.p.
  Number of dead mice for 7 days: 1/6
  Number of dead mice, 1st day: 0/6
  Number of dead mice, 3rd day: 1/6
  Lethality: 16.7
[4]; female, 55.0 mg/kg i.p.
  Number of dead mice for 7 days: 2/6
  Number of dead mice, 1st day: 0/6
  Number of dead mice, 3rd day: 1/6
  Number of dead mice, 4th day: 1/5
  Lethality: 33.3
[4]; female, 71.4 mg/kg i.p.
  Number of dead mice for 7 days: 4/6
  Number of dead mice, 1st day: 0/6
  Number of dead mice, 3rd day: 3/6
  Number of dead mice, 4th day: 1/3
  Lethality: 66.7
[4]; male, 25.0 mg/kg i.p.
  Number of dead mice for 7 days: 0/6
  Number of dead mice, 1st day: 0/6
[4]; male, 32.5 mg/kg i.p.
  Number of dead mice for 7 days: 0/6
  Number of dead mice, 1st day: 0/6
[4]; male, 42.3 mg/kg i.p.
  Number of dead mice for 7 days: 2/6
  Number of dead mice, 1st day: 0/6
  Number of dead mice, 3rd day: 1/6
  Number of dead mice, 5th day: 1/5
  Lethality: 33.3
[4]; male, 55.0 mg/kg i.p.
  Number of dead mice for 7 days: 2/6
  Number of dead mice, 1st day: 0/6
  Number of dead mice, 3rd day: 1/6
  Number of dead mice, 4th day: 1/5
  Lethality: 33.3
[4]; male, 71.4 mg/kg i.p.
  Number of dead mice for 7 days: 4/6
  Number of dead mice, 1st day: 0/6
  Number of dead mice, 3rd day: 2/6
  Number of dead mice, 4th day: 2/4
  Lethality: 66.7

Reference: patent US5395947A, “Platinum(II) complex and processes for preparing the same” (Sunkyong Industries, Ltd., priority 1991, dated 1995)
